Results: the NIST ThermoML archive (doi:10.1021/je400498a)
± gives the expanded uncertainty stated by the source.

Legend:
[1] = for vapor or sublimation pressure: 298.15 K, Gas chromatography
[2] = Molar enthalpy of transition or fusion; conditions: Crystal; DSC

vapor or sublimation pressure ([1]; Crystal) [kPa]	Normal melting temperature ([1]; Crystal, DTA) [°C]	Molar enthalpy of transition or fusion [2] [kcal/mol]	Compound	vapor or sublimation pressure ([1]; Liquid) [kPa]
–	–	–	CC(N)C12CC3CC(CC(C3)C1)C2 (centres undefined) [1-(adamantan-1-yl)ethan-1-amine]	0.003 ± 0.002
0.00012 ± 8e-05	–	–	CCCCCCCCCCCCCCN [1-tetradecanamine]	–
–	–	–	CC(C)(N)Cc1ccccc1 [2-methyl-1-phenylpropan-2-amine]	0.035 ± 0.008
–	–	–	N[C@@H]1C[C@H]1c1ccccc1 (relative stereo) [trans-2-phenylcyclopropylamine]	0.028 ± 0.01
0.0016 ± 0.0002	–	–	CCCCCCCCCCCCN [1-dodecanamine]	–
0.0115 ± 0.0043	204.2 ± 1.8	1.74 ± 0.12	NC12CC3CC(CC(C3)C1)C2 [tricyclo(3.3.1.1:3,7)decan-1-amine]	0.021 ± 0.003
